Assay results taken from patent publication US11419869B2, “Dosage forms and regimens for amino acid compounds” (Pliant Therapeutics, Inc., priority 2019, dated 2022).

Tests used:
[1] = tested on: COL1A1 expression; assay: COL1A1 expression in precision cut lung slices (PCLS) from human IPF lung tissue; conditions: FIG. 6E, 200 pM to 1 μM
[2] = tested on: normal (healthy) human bronchial epithelial cells; assay: LAP adhesion binding assay, normal human bronchial epithelial cells; format: cell-based; conditions: cell index (electrical impedance), FIG. 3A
Method: Two latency associated peptide (LAP) adhesion binding assays were devised using primary human lung cells, including normal (healthy) human bronchial epithelial cells and human lung fibroblasts (healthy and IPF).
Human bronchial epithelial cells are known to express αvβ6 integrin in culture. Human bronchial epithelial cells were prepared for the assay by dissociation with trypsin/EDTA and were then seeded at 20,000 cells per well on 96 well plates (ACEA Bioscience E-plate View, Acea Biosciences; San Diego, Calif.) previously coated with 5 μg/ml of recombinant human LAP (R&D Systems; Minneapolis, Minn.) and blocked with 4% bovine serum albumin. Cell index (electrical impedance) was measured to assess cell attachment/spreading every 3 minutes for 24 hours at 37° C./5% CO2 using the xCELLigence RTCA MP Instrument (Acea Biosciences; San Diego, Calif.).

[3] = tested on: COL1A1 expression; assay: Precision cut lung slices from human IPF explants, COL1A1 expression (Example B11); format: cell-based
From the text: Explanted lung tissue was obtained from human IPF subjects and inflated with agarose as described in the preceding examples. Biopsy cores were obtained from the agarose-inflated lung tissue. The biopsy cores were subjected to precision slicing to obtain several hundred μm thick. Individual slices were distributed in a multiwell culture plate and cultured for […] under control (DMSO) and test compound conditions. The viability of the slices over the course of culturing was confirmed by WST-1 assay of mitochondrial activity.
PCLS from 5-7 idopathic pulmonary fibrosis (IPF) lung tissue samples were cultured for seven days with one of: DMSO; Compound 5 at 200 nM; nintedanib at 75 nM; pirfenidone at 50 μm; a combination of Compound 5 at 200 nM and nintedanib at 75 nM; a combination of Compound 5 at 200 nM and pirfenidone at […]; or an Alk5 inhibitor at 1 μm. […] FIG. 6D is a bar graph showing relative expression of COL1A1 in precision cut lung slices (PCLS) from idopathic pulmonary fibrosis (IPF) lung tissue upon exposure to Comopund 5, clinical standard of care compounds nintedanib (Nin) and pirfenidone (Pirf), and an ALK5 inhibitor, all versus DMSO control.
PCLS from a single IPF lung tissue sample were cultured for seven days with Compound 5 at concentrations of […], 2 nM, 60 nM, 200 nM, and 1 μM, along with 0.1% DMSO control and an Alk5 inhibitor at 1 μM. […] COL1A1 expression is also graphed for the PCLS in the presence of 0.1% DMSO control, and an Alk5 inhibitor at 1 μM.

COCCN(CCCCc1ccc2c(n1)NCCC2)CC[C@H](Nc1ncnc2ccccc12)C(=O)O [Compound 5, (S)-4-((2-methoxyethyl) (4-(5,6,7,8-tetrahydro-1,8-naphthyridin-2-yl)butyl)amino)-2-(quinazolin-4-ylamino) butanoic acid] was tested, and the COL1A1 expression [1] was “dose dependent reduction”, the “normal bronchial epithelial cell adhesion to LAP” value [2] was “substantially inhibited” and the “COL1A1 expression, dose dependence” value ([3]; PCLS from a single IPF lung sample, seven days, 200 pM to 1 μM, FIG. 6E) was “dose dependent reduction”. For the same compound, the “reduction in COL1A1 expression” value ([3]; PCLS from a single IPF lung sample, seven days, at ≥2 nM, FIG. 6E) was ≥ 47 % reduction and the “lung Col1a1 expression” value ([3]; human IPF slices, 3 days, 3G9 ≥400 ng/mL, compound 5 179 nM, ALK5 inhibitor 1 μM, FIG. 6C) was “substantial, statistically significant (p<0.01 vs vehicle) decrease”.
